{"source": "paper PMC10375191", "about": "“Transformable Neuropeptide Prodrug with Tumor Microenvironment Responsiveness for Tumor Growth and Metastasis Inhibition of Triple‐Negative Breast Cancer” (Advanced Science, 2023)", "key": {"[1]": {"molecular_target": "T1, matrix metalloproteinase‐2 (MMP‐2) (Homo sapiens, UniProt P08253)", "T1 construct": "purchased Novoprotein Scientific Inc. (Shanghai, China)", "T1 sequence (P08253 110-660)": "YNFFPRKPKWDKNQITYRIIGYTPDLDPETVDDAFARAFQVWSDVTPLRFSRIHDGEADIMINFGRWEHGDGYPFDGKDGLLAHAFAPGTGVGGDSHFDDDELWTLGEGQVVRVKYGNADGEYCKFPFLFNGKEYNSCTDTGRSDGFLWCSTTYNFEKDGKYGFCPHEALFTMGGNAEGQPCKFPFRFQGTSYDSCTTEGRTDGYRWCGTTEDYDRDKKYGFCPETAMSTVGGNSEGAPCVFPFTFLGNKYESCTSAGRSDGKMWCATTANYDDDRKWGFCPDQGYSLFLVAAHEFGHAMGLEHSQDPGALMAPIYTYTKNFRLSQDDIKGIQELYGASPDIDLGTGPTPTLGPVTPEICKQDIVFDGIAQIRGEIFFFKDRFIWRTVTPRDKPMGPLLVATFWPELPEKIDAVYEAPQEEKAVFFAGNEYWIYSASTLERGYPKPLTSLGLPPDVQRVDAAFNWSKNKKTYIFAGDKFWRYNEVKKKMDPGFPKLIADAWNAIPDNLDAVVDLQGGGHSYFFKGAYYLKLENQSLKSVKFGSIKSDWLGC", "experiment": "MMPs-responsive cleavage of DOX-P18 by MMP-2 (HPLC, MS, fluorescence)", "assay_type": "in vitro ADME", "conditions": "1 mg mL^−1 DOX-P18 with 1 µg mL^−1 MMP-2, 37 °C; HPLC at 6, 12, 24, 72 h, monitored at 500 nm; product DOX-P3 identified by MS", "method": "The enzymatic reaction process was monitored by HPLC at 6, 12, 24, and 72 h.\nDoxorubicin hydrochloride (DOX·HCl), trifluoroacetic acid (TFA), and anhydrous N,N-Dimethylformamide (DMF) were purchased from Aladdin (Shanghai, China).\nThioanisole (TA), 1,2-ethanedithiol (EDT), and phenol were obtained from Macklin (Shanghai, China). 4-methylmorpholine (NMM), N,N’-diisopropylcarbodiimide (DIC), and 1-hydroxybenzotriazole (HOBt) were purchased from OKA (Beijing, China). Rink amide methylbenzhydrylamine (MBHA) resin, Wang resin and all Fmoc-protected amino acids were obtained from NJPeptide (Nanjing, China). Ethanol, diethyl ether, acetonitrile (ACN), and methanol were purchased from Sinopharm Chemical Reagent Co., Ltd (Shanghai, China). Piperidine, p-nitrophenol, and succinic anhydride (Succ) were obtained from Sigma-Aldrich (Shanghai, China). Recombinant human matrix metalloproteinase-2 (MMP-2) and matrix metalloproteinase-9 (MMP-9) produced by Novoprotein Scientific Inc. (Shanghai, China) are supplied as a 0.2 μm filtered buffer mixture of 20 mM Tris-HCl, 2 mM CaCl2, 150 mM NaCl, 0.05 % Brij 35 (w/v), pH 7.5, and their specific activity is >1300 pmol/min/µg as measured under the described conditions. All commercial reagents and HPLC solvents were used with […]"}, "[2]": {"test_system": "MDA‐MB‐231 cells", "experiment": "Flow cytometry: cellular uptake and cellular MMPs-responsive drug release", "assay_type": "cell-based, human", "method": "MDA‐MB‐231 cells were plated in 6‐well plates (2 × 10^5 cells per well) for 24 h. […] The mean fluorescence intensity (MFI) of 1 × 10^4 cells was detected by flow cytometry (FACSCalibur, BD, USA). Besides, 5 mM ethylenediaminetetraacetic acid (EDTA) purchased from Sigma was used as a model inhibitor to inhibit MMPs activity."}, "[3]": {"test_system": "MCF‐10A cells", "experiment": "CCK-8 cell viability assay, MCF-10A", "assay_type": "cell-based, human", "conditions": "24 h", "method": "MDA‐MB‐231 cells were incubated in 96‐well plates for 24 h (1 × 10^4 cells per well). […] At the appointed time, 10 µL CCK‐8 solution was dropped into each well and further co‐incubated with treated cells for 2 h. The absorbance values at 450 nm were measured by an automated plate reader (iMark (168‐1130), Biorad, USA). The IC50 values were obtained from Microsoft Excel's FORECAST formula.\nmammary epithelial cell line MCF-10A after 24 h incubation. Data are presented as\nmeans ± standard deviations (n = 3).\n(1 picture or pasted object on this page, not shown here)"}, "[4]": {"test_system": "MDA‐MB‐231 cells", "experiment": "Transwell invasion assay (Matrigel)", "assay_type": "cell-based, human", "conditions": "MDA-MB-231, Matrigel transwell, 1 µg mL^−1 in lower chamber, 24 h, versus PBS group, n = 3", "method": "1 × 10^6 MDA‐MB‐231 cells were suspended on the top chambers of the transwell with Matrigel. Cells were cultured in DMEM without FBS overnight. […] After incubation for 24 h, the cells on the upper wells were cautiously erased with a cotton swab. Cells on the lower surface were fixed with 4% PFA and stained with crystal violet. After multiple washing with PBS, the cells that passed through the membrane were recorded with a microscope (DFC 450C, Leica, Germany)."}, "[5]": {"test_system": "healthy ICR mice", "experiment": "Maximum tolerated dose / acute toxicity study", "text": "Animal survival of each group (n = 10, 5 female and 5 male) was continuously recorded for 14 days. Eventually, the evaluation and calculation of the median lethal dose (LD50) were completed with these collected data using the Bliss rule."}, "[6]": {"conditions": "MDA-MB-231, 40 µg mL^−1, 1 h 37 °C, endocytosis inhibitors, flow cytometry MFI"}}, "note": "Starred links: 1 amine or outer side, 2 acyl side, 3 side chain; linkers in the order of their positions; H or OH if unused. Residues, ends and D or L forms follow the SMILES beside them. *: point of attachment. Doxorubicin(3'-N) = COc1cccc2c1C(=O)c1c(O)c3c(c(O)c1C2=O)C[C@@](O)(C(=O)CO)C[C@@H]3O[C@H]1C[C@H](N*)[C@H](O)[C@H](C)O1; Suc = O=C(CCC(=O)[*:2])[*:1]", "data": [{"compound": "CC[C@H](C)[C@H](NC(=O)[C@@H]1CCCN1C(=O)[C@H](CC(N)=O)NC(=O)[C@H](CC(N)=O)NC(=O)[C@H](Cc1ccc(O)cc1)NC(=O)[C@H](Cc1c[nH]cn1)NC(=O)[C@H](CCCNC(=N)N)NC(=O)CNC(=O)[C@H](CCCNC(=N)N)NC(=O)[C@@H](NC(=O)CNC(=O)[C@H](CC(C)C)NC(=O)[C@@H]1CCCN1C(=O)CCC(=O)N[C@H]1C[C@H](O[C@H]2C[C@](O)(C(=O)CO)Cc3c(O)c4c(c(O)c32)C(=O)c2c(OC)cccc2C4=O)O[C@@H](C)[C@H]1O)C(C)C)C(=O)N[C@@H](Cc1c[nH]c2ccccc12)C(=O)N[C@@H](CCCNC(=N)N)C(=O)N[C@@H](CCC(N)=O)C(=O)N[C@@H](CCCNC(=N)N)C(=O)N[C@@H](Cc1ccc(O)cc1)C(N)=O", "note": "[DOX‐P18] ({Doxorubicin(3'-N)-Suc}-PLGVRGRHYNNPIWRQRY-NH2)", "values": [{"measurement": "Enzymatic cleavage by MMP-2", "setting": "[1]", "value": "efficiently cleaved"}, {"measurement": "Cellular uptake at 4 °C (MFI)", "setting": "[2]; MDA-MB-231, 40 µg mL^−1 (by DOX content), DMEM 10% FBS, 1 h, 4 °C, flow cytometry, n = 3", "value": "strongly suppressed"}, {"measurement": "Share of uptake by Y1R-mediated endocytosis", "setting": "[2]; MDA-MB-231, 40 µg mL^−1, 1 h 37 °C, Y1R antagonist BIBP3304 20 µM, flow cytometry MFI", "value": 20, "unit": "%"}, {"measurement": "Share of uptake by caveolin-mediated endocytosis", "setting": "[2]; [6]", "value": 14, "unit": "%"}, {"measurement": "Share of uptake by micropinocytosis", "setting": "[2]; [6]", "value": 27, "unit": "%"}, {"measurement": "Cell fluorescence intensity relative to EDTA-treated group (cellular drug release)", "setting": "[2]; MDA-MB-231, 48 h, without vs with 5 mM EDTA (MMPs inhibited), flow cytometry, n = 3", "value": "almost three times higher"}, {"measurement": "IC50 (cytotoxicity), in words", "setting": "[3]", "value": "higher"}, {"measurement": "Inhibition on cell invasion", "setting": "[4]", "value": 50, "unit": "%"}, {"measurement": "Histological analysis of major organs", "setting": "[5]; 14 days after single dose, 40 mg kg^−1 DOX (or DOX equivalent)", "value": "no significant differences in major organs"}, {"measurement": "Blood routine indexes", "setting": "[5]; 14 days after single injection, n = 3, DOX: WBC, PLT, PCT at 10 mg kg^−1, DOX-P18: all indexes, different doses", "value": "not significantly different"}, {"measurement": "Improvement of biosafety (LD50 versus DOX)", "setting": "[5]; LD50 in DOX equivalents versus free DOX", "value": 67.8, "unit": "%"}, {"measurement": "Single-dose median lethal dose (LD50)", "setting": "[5]; single intravenous dose, 14 days, n = 10 per group, Bliss rule", "value": 221.5, "unit": "mg/kg"}]}]}
